From ChEMBL document CHEMBL5291721, “A preclinical secondary pharmacology resource illuminates target-adverse drug reaction associations of marketed drugs” (Nat Commun, 2023) come the findings set out here.

Some targets named below: D(1A) dopamine receptor (Homo sapiens, UniProt P21728); Mu-type opioid receptor (Homo sapiens, UniProt P35372); Histamine H3 receptor (Homo sapiens, UniProt Q9Y5N1); D(3) dopamine receptor (Homo sapiens, UniProt P35462).
Assay [1] addresses T1, Thromboxane A2 receptor (Homo sapiens, UniProt P21731).
T1 sequence (P21731 whole entry): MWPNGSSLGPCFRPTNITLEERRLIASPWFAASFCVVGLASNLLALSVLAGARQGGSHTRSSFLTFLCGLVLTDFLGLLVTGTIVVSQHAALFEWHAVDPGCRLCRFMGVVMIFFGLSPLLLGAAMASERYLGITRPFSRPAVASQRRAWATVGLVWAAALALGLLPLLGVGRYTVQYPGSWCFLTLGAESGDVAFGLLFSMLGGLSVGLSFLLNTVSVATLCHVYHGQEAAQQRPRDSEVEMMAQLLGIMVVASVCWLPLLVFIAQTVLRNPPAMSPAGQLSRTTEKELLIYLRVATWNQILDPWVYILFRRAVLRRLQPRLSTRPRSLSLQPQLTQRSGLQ
The class given is functional, cell-based.

Assay [2] has as its target T2, Muscarinic acetylcholine receptor M2 (Homo sapiens, UniProt P08172).
T2 sequence (P08172 whole entry): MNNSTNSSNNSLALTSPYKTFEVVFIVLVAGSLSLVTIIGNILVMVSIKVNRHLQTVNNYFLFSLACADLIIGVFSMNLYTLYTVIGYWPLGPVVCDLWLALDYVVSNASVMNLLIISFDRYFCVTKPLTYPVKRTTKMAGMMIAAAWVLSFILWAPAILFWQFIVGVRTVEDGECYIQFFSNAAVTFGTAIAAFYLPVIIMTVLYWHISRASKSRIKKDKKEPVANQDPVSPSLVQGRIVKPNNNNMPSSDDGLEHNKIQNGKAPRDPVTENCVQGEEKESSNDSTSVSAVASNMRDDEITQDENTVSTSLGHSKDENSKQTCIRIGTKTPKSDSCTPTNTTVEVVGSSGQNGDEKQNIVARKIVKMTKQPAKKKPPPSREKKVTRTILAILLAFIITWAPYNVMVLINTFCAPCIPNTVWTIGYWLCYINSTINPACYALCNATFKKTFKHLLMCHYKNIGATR

For assay [3], the target named is Voltage-gated inwardly rectifying potassium channel KCNH2 (Homo sapiens, UniProt Q12809). The assay is classed as functional. To be noted: read-out: AC50.
Sequence of Voltage-gated inwardly rectifying potassium channel KCNH2 (Q12809 whole entry): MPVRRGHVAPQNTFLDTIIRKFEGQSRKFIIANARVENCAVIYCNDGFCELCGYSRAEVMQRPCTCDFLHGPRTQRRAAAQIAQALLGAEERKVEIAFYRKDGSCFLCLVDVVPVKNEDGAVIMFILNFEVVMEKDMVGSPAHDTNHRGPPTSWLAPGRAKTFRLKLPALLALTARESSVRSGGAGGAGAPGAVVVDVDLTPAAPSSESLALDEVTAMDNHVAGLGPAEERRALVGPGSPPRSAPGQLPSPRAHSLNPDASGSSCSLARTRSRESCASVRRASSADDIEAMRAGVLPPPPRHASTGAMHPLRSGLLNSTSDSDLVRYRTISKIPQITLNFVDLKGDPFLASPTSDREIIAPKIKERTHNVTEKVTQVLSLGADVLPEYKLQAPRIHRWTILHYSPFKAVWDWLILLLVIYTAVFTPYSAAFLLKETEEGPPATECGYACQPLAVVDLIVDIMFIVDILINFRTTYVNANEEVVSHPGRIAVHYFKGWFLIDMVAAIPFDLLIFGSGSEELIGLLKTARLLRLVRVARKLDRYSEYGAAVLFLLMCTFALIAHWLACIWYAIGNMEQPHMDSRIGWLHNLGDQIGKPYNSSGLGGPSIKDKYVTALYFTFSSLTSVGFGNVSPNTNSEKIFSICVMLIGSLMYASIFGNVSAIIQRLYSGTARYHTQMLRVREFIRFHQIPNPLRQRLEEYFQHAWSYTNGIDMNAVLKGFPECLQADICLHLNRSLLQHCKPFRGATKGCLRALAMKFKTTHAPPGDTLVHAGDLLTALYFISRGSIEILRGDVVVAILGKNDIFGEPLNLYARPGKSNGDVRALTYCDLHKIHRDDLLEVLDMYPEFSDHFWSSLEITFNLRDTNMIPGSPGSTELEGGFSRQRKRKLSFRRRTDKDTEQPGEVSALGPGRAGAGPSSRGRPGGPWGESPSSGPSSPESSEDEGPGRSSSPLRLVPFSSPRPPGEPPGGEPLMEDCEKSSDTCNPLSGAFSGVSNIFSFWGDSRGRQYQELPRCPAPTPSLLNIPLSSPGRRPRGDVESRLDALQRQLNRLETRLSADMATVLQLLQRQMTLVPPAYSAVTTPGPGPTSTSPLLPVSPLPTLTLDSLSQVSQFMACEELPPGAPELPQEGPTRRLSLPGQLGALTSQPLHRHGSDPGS
The target of assay [4] is T3, Prostaglandin G/H synthase 1 (Homo sapiens, UniProt P23219). The assay is classed as functional.
In assay [5] the target is T3, Prostaglandin G/H synthase 1. The class given is functional. This is another data set of the same source.
Assay [6] concerns the target cGMP-inhibited 3',5'-cyclic phosphodiesterase 3A (Homo sapiens, UniProt Q14432). The assay is classed as functional.
The target in assay [7] is Sodium-dependent dopamine transporter (Homo sapiens, UniProt Q01959).
Sequence of Sodium-dependent dopamine transporter (Q01959 whole entry): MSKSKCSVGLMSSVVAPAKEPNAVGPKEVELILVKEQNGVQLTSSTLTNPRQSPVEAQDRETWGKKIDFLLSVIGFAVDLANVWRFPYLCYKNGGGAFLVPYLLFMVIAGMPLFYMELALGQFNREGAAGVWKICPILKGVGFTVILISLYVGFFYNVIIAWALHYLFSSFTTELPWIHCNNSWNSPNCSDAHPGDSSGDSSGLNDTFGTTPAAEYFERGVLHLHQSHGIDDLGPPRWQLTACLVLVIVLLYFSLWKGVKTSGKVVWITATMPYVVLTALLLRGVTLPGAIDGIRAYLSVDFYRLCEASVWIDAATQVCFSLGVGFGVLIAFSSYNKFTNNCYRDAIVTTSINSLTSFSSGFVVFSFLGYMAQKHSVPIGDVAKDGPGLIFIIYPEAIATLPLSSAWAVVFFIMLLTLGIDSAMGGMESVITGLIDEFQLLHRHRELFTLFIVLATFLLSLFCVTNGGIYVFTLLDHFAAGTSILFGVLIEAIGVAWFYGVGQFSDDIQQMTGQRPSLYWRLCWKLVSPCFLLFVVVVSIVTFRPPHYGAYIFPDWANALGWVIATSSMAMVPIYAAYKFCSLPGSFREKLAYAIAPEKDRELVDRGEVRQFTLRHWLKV
Another assay concerns the target Bile salt export pump (Homo sapiens, UniProt O95342). The class given is functional.
For assay [8], the target named is Sodium-dependent noradrenaline transporter (Homo sapiens, UniProt P23975).
Assay [9] has as its target T4, Amine oxidase [flavin-containing] A (Homo sapiens, UniProt P21397).
T4 sequence (P21397 whole entry): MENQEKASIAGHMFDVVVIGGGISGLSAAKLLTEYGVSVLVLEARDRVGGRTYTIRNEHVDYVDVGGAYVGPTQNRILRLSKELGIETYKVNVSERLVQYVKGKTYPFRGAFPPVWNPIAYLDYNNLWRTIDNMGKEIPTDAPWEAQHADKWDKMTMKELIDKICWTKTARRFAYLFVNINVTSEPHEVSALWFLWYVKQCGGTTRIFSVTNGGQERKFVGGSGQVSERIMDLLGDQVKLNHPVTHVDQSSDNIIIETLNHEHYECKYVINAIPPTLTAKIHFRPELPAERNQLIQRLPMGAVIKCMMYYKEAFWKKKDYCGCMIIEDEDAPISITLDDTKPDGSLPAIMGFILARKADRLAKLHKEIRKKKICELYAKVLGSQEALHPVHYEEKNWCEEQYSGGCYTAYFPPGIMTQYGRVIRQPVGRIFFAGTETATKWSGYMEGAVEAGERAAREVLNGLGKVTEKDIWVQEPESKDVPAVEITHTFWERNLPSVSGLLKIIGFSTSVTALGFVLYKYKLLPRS
The class given is functional.

Assay [10] concerns the target T1, Thromboxane A2 receptor. The assay is classed as functional, cell-based. This is another data set of the same source.
Assay [11] deals with 3',5'-cyclic-AMP phosphodiesterase 4A (Homo sapiens, UniProt P27815). The class given is functional.
In another assay the target is Acetylcholinesterase (Homo sapiens, UniProt P22303). The class given is functional.
Sequence of Acetylcholinesterase (P22303 whole entry): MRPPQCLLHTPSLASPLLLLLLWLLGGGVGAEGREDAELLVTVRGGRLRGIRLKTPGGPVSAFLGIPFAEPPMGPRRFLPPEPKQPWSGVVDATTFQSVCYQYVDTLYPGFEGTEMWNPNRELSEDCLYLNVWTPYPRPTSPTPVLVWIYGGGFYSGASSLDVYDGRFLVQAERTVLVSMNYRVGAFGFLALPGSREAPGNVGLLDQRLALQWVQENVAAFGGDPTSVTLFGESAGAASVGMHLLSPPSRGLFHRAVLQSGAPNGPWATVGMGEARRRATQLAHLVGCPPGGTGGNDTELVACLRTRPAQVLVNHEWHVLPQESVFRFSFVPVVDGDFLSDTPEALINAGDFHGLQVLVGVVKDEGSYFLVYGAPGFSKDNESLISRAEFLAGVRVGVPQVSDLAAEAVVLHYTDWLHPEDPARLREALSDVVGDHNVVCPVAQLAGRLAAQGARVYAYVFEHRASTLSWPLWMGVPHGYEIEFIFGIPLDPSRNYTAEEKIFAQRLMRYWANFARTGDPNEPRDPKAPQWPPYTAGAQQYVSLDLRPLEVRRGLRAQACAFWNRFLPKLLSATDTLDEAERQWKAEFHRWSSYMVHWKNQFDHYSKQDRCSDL
In assay [12] the target is T5, 5-hydroxytryptamine receptor 1A (Homo sapiens, UniProt P08908).
T5 sequence (P08908 whole entry): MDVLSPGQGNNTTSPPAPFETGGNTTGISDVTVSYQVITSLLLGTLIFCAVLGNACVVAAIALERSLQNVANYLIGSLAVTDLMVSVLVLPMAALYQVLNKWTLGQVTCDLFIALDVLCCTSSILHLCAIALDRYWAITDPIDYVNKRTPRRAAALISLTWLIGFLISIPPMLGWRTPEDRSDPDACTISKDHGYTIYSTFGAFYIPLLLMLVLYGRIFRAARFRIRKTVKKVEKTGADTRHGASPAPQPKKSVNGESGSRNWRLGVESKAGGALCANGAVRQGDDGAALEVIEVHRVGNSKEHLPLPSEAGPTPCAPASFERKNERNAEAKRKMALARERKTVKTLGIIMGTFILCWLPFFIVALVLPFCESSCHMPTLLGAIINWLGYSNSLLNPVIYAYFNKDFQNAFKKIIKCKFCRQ

In assay [13] the target is 5-hydroxytryptamine receptor 2B (Homo sapiens, UniProt P41595). The class given is functional, cell-based.
Sequence of 5-hydroxytryptamine receptor 2B (P41595 whole entry): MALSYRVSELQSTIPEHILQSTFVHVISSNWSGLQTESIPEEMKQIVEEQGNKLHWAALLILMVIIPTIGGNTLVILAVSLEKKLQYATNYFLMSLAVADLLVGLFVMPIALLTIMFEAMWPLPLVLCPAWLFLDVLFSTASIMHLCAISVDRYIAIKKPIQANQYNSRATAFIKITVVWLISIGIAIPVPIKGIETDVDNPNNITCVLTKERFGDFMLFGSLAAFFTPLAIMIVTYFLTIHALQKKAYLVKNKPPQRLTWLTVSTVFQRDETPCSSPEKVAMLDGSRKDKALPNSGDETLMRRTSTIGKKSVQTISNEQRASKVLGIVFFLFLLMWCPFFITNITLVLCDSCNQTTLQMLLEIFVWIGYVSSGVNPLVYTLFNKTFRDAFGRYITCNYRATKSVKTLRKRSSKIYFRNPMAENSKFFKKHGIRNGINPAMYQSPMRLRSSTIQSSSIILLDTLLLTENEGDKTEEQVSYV
Note: assay procedure not described here.

Sequence of D(3) dopamine receptor (P35462 whole entry): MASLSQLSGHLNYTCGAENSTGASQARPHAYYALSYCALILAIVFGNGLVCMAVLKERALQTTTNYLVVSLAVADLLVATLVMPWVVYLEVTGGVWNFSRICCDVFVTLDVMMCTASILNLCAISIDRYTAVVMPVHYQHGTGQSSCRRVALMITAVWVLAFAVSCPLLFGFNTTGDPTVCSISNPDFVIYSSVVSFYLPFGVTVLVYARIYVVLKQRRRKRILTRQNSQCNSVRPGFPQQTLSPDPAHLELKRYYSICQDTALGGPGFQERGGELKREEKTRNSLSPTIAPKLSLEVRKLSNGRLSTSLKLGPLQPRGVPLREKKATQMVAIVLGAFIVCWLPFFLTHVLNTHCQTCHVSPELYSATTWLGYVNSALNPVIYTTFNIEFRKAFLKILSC
Sequence of cGMP-inhibited 3',5'-cyclic phosphodiesterase 3A (Q14432 whole entry): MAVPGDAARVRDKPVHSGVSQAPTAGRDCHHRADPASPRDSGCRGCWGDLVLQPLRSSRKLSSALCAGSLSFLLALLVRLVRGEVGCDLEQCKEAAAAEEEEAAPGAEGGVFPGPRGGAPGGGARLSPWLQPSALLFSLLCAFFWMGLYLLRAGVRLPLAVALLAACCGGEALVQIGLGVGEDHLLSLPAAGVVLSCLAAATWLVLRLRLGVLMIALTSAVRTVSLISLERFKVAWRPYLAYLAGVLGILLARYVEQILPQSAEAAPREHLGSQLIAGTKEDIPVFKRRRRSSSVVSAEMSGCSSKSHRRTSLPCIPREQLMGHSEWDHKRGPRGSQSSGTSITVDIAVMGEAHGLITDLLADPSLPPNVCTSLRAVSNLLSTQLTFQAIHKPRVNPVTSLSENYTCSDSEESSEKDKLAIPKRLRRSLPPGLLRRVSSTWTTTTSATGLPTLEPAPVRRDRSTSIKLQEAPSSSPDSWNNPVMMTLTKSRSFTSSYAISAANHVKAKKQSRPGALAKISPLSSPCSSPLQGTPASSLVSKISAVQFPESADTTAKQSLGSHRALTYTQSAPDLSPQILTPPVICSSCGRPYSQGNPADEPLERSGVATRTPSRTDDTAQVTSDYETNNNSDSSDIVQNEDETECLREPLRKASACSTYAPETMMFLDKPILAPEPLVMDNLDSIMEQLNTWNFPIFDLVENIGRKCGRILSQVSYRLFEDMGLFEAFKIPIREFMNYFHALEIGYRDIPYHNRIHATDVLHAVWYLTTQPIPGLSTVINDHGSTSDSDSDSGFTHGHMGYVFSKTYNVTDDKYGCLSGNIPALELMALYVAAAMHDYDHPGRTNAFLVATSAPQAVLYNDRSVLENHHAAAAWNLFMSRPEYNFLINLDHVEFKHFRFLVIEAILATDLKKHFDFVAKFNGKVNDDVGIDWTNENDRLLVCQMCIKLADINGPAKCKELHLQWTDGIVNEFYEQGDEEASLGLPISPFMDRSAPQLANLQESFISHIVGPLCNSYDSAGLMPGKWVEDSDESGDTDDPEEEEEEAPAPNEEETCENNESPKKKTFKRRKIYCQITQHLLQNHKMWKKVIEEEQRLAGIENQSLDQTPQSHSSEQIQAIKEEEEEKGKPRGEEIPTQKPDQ
Sequence of D(1A) dopamine receptor (P21728 whole entry): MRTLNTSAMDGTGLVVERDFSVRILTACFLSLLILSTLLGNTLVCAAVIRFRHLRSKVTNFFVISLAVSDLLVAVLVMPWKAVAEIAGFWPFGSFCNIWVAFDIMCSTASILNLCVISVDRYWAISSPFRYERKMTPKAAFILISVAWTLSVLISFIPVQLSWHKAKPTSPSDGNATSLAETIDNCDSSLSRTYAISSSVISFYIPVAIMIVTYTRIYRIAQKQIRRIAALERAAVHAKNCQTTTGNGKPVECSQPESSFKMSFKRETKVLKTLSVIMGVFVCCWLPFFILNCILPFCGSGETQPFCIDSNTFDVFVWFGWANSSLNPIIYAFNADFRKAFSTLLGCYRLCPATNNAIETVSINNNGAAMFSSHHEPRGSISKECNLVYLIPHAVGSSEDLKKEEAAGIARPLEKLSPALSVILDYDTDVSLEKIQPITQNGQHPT

The AC50 is the concentration giving half of the maximal activity seen. As for `O=C(O)CCCc1ccc(N(CCCl)CCCl)cc1` [CHLORAMBUCIL], the AC50 (at D(1A) dopamine receptor; on Thromboxane A2 receptor [1]; in assay [2]; in [3]; in assay [4]; in assay [5]) was > 30 µM each time. Also, the AC50 is > 30 µM at Mu-type opioid receptor; > 30 µM in [6]; > 30 µM in assay [7]; 270 µM on Bile salt export pump; > 30 µM in assay [8]; > 30 µM in [9]. The half-maximal activity concentration (AC50) (on Thromboxane A2 receptor [10]; at Histamine H3 receptor; at D(3) dopamine receptor; in assay [11]; on Acetylcholinesterase; in [12]) was > 30 µM in each case. In addition, the AC50 in assay [13] was > 30 µM.
For the compound `Cn1c(=O)c2c(ncn2CC(O)CO)n(C)c1=O` (stereo not given) [DYPHYLLINE], the AC50 (on D(1A) dopamine receptor; on Thromboxane A2 receptor [1]; in [2]; in [3]; in assay [4]; in assay [5]) was > 30 µM in each case. In addition, the AC50 was > 30 µM at Mu-type opioid receptor; > 30 µM in [6]; > 30 µM in [7]; > 300 µM on Bile salt export pump; > 30 µM in [8]; > 30 µM in assay [9]. In addition, the AC50 (on Thromboxane A2 receptor [10]; at Histamine H3 receptor; at D(3) dopamine receptor; in assay [11]; at Acetylcholinesterase; in assay [12]) was > 30 µM throughout. Besides, in assay [13], the AC50 is > 30 µM.
For the compound `C#Cc1cccc(Nc2ncnc3cc(OCCOC)c(OCCOC)cc23)c1` [ERLOTINIB], the half-maximal activity concentration (AC50) at D(1A) dopamine receptor is > 10 µM; on Thromboxane A2 receptor [1], > 30 µM; in assay [2], 13.2 µM; in assay [3], > 30 µM; in assay [4], 0.0388 µM; in assay [5] it was > 30 µM. Further, the AC50 on Mu-type opioid receptor was 3.82 µM; in assay [6], > 30 µM; in assay [7], > 30 µM; at Bile salt export pump, 6.1 µM; in [8], > 30 µM; in assay [9], > 30 µM. In addition, the half-maximal activity concentration (AC50) (on Thromboxane A2 receptor [10]; at Histamine H3 receptor; on D(3) dopamine receptor; in [11]; on Acetylcholinesterase; in assay [12]) was > 30 µM in each case. For the same compound, the half-maximal activity concentration (AC50) in [13] was > 30 µM.
As for `CCC(=O)O[C@@H](O[P@](=O)(CCCCc1ccccc1)CC(=O)N1C[C@H](C2CCCCC2)C[C@H]1C(=O)O)C(C)C` [FOSINOPRIL], the half-maximal activity concentration (AC50) (at D(1A) dopamine receptor; on Thromboxane A2 receptor [1]; in assay [2]; in assay [3]; in [4]; in assay [5]) was > 30 µM each time. Further, the AC50 at Mu-type opioid receptor was > 30 µM; in assay [6], > 30 µM; in assay [7], > 30 µM; at Bile salt export pump it was 11 µM; in [8], > 30 µM; in [9], > 30 µM. The AC50 (on Thromboxane A2 receptor [10]; on Histamine H3 receptor; at D(3) dopamine receptor; in [11]; at Acetylcholinesterase; in assay [12]) was > 30 µM in each case. The AC50 in assay [13] was > 30 µM.
As to `CC(=O)/N=c1/sc(S(N)(=O)=O)nn1C` [METHAZOLAMIDE], the AC50 (at D(1A) dopamine receptor; at Thromboxane A2 receptor [1]; in [2]; in assay [3]; in assay [4]; in assay [5]) was > 30 µM each time. Besides, the half-maximal activity concentration (AC50) at Mu-type opioid receptor is > 30 µM; in assay [6], > 30 µM; in assay [7], > 30 µM; at Bile salt export pump, > 300 µM; in [8], > 30 µM; in [9], > 30 µM. Moreover, the half-maximal activity concentration (AC50) (on Thromboxane A2 receptor [10]; on Histamine H3 receptor; at D(3) dopamine receptor; in assay [11]; on Acetylcholinesterase; in assay [12]) was > 30 µM in each case. Moreover, in [13], the concentration at half-maximal activity (AC50) is > 30 µM.
